Source: patent publication US20250034158A1, “TEXAPHYRIN DERIVATIVES FOR MANGANESE CHEMOTHERAPY, PHOTOACOUSTIC IMAGING, AND PHOTOTHERMAL THERAPY” (BOARD OF REGENTS, THE UNIVERSITY OF TEXAS SYSTEM, priority 2020, published 2025)

What was measured:
C4-2 tumor [1] = assay: In vivo stability of PA signal after direct injection at the tumor site; design: species or system mouse; conditions: 250 μM, 50 μL, 0.625 μmol/kg, direct injection into tumor, 0-60 min
Method: Laser light was used to illuminate the tumor during data collection: 800 nm, 20 mJ for ICG and 725 nm, 20 mJ for MMn.
Laser wavelength: 800 nm, Laser fluence: 20 mJ/cm^2. Percentage of PA signal after 1 hour=46%
Laser wavelength: 725 nm, Laser fluence: 20 mJ/cm^2. Percentage of PA signal after 1 hour=91%
(§1) Male BALB/c nude mice (18±2 g, 4-6 weeks old) were purchased from a commercial source and used according to standard animal guidelines for the care and use of laboratory animals with appropriate ethical oversight board approval.
Human prostate cancer cell lines C4-2 were purchased from commercial sources and cultured in Dulbecco's Modified Eagle Medium (DMEM) (Life Technologies, NY, USA) supplemented with 10% fetal bovine serum (FBS; Cyclone, UT, USA). […]
(§2) An optical parametric oscillator (OPO) laser source (Innolas GmbH, Bonn, Germany) emitting 8 ns pulsed lasers was coupled to a multimode optical fiber with a 1500 μm core diameter for the photoacoustic signal excitation. […] This led to the vibration of the tissue, which generated ultrasonic waves that could be recorded by a commercial 128-element linear array transrectal ultrasound transducer. […]
To confirm the in vivo stability of MMn for PA imaging, MMn was injected directly at the tumor site and the PA signal was measured over time (0-60 mins) with concurrent US imaging. […]

[2] = Photostability under photoirradiation (UV-Vis absorption over time); type: physicochemical; conditions: fluence ~18 mJ/cm^2
Text: Measurements were taken at 5-minute intervals. Fluence: 20 mJ/cm^2. Laser wavelength: 780 nm.
Measurements were taken at 5-minute intervals. Fluence: 20 mJ/cm^2. Laser wavelength: 725 nm.
Measurements were taken at 5-minute intervals. Fluence: 20 mJ/cm^2. Laser wavelength: 740 nm.
Photostability is also relevant factor to consider for a potential PA contrast agent for clinical applications.

C4-2 tumor [3] = assay: In vivo PA imaging, prostate tumor mouse model, tail vein injection; conditions: 500 μM, 200 μL, 5 μmol/kg, after 24 h
Method: as §1
Human prostate cancer cell lines C4-2 were purchased from commercial sources and cultured in Dulbecco's Modified Eagle Medium (DMEM) (Life Technologies, NY, USA) supplemented with 10% fetal bovine serum (FBS; Cyclone, UT, USA). Cells were incubated at 37° C. in a humidified atmosphere containing 5% CO2. For C4-2 tumor inoculation, C4-2 cells (˜1×10^6) suspended in PBS were injected under the nude mice epidermis of the right flank. Animals were observed every day for any behavioral abnormalities. […]
as §2
To test further the PA imaging potential of MMn, in vivo experiments were performed using a prostate tumor mouse model as shown in FIG. 19. […] Normalized PA intensity values were then calculated. […]

CC1(C)C(/C=C/C=C/C=C/C=C2\N(CCCCS(=O)(=O)O)c3ccc4ccccc4c3C2(C)C)=[N+](CCCCS(=O)(=O)[O-])c2ccc3ccccc3c21 [ICG, Indocyanine green]
PA signal remaining at tumor site after 1 hour (C4-2 tumor [1]): 46% | change in absorption at 780 nm over photoirradiation ([2]; 40 μM, 30 minutes): 90% | photostability upon photoirradiation ([2]; ICG: 100 μM, 20 minutes, 780 nm): poor photostability | increase in normalized PA signal intensity at the tumor site relative to pre-injection (C4-2 tumor [3]): No significant increase
